For ten compounds, GI50 and TGI results are on record in PubChem BioAssay (NCI).

Some test systems named below: 786-0 renal; A549 NSCLC; ACHN renal; COLO 205 colon; HS 578T breast; IGROV1 ovarian; K-562 leukemia; NCI-H226 lung; RXF 393 renal; SK-MEL-5 melanoma.
Holding throughout (assay): NCI tumour cell line growth inhibition, 48 h

Several values for one entry are separate records, joined by “and”; a condition that tells them apart may be missing. Identical values can stand only once.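 How tested: cells in 96-well plates exposed to compound for 48 hours at five concentrations. Abbreviation: GI50, concentration required for 50% inhibition of growth. Definition used: TGI = concentration required for complete inhibition of growth.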 A value given as a limit tells only on which side of the number the result lay.

With `O=C1C=C(OCC=C(Cl)Cl)C(=O)c2ccccc21`, the GI50 with 786-0 renal is 51.9 µM; in the assay with A549 NSCLC, 33.2 µM; in the assay on ACHN renal, 7.02 µM; in the assay with COLO 205 colon, 4.39 µM; in the assay on HS 578T breast, 2.7 µM; in the assay with IGROV1 ovarian, 4.04 µM. In addition, the GI50 is 1.01 µM in the assay with K-562 leukemia, 18.7 µM with NCI-H226 lung, 2.46 µM with RXF 393 renal and 1.53 µM in the assay with SK-MEL-5 melanoma. Besides, the TGI is greater than 100 µM with 786-0 renal; greater than 100 µM in the assay on A549 NSCLC; 99.7 µM in the assay with ACHN renal; 12.1 µM in the assay with COLO 205 colon; 8.47 µM in the assay on HS 578T breast; 23.5 µM with IGROV1 ovarian. The TGI with K-562 leukemia was greater than 23 µM; with NCI-H226 lung it was 67.5 µM; with RXF 393 renal it was 11.1 µM; with SK-MEL-5 melanoma it was 3.85 µM.
In the case of `COC(=O)C(=O)C(C(=O)C(=O)Nc1nc(=S)[nH][nH]1)c1nc2ccc([N+](=O)[O-])cc2[nH]c1=O` (centres undefined), the TGI with 786-0 renal, with A549 NSCLC, with ACHN renal, with HS 578T breast, with IGROV1 ovarian and in the assay with K-562 leukemia was greater than 100 µM each time. Moreover, the TGI in the assay with NCI-H226 lung, in the assay on RXF 393 renal and in the assay on SK-MEL-5 melanoma was greater than 100 µM each time.
`CN1CCN(Cc2ccc(NC(=O)c3[nH]ncc3Nc3cc(OC4CCCC4)ncn3)cc2)CC1`: the GI50 is 1.35 µM in the assay with 786-0 renal; 2.11 µM with A549 NSCLC; 1.09 µM in the assay on ACHN renal; 1.24 µM in the assay on COLO 205 colon; 2.2 µM in the assay on HS 578T breast; 1.75 µM in the assay on IGROV1 ovarian. Moreover, the GI50 in the assay with K-562 leukemia was 1.64 µM; in the assay on NCI-H226 lung it was 2.98 µM; in the assay with RXF 393 renal, 1.36 µM; in the assay on SK-MEL-5 melanoma, 1.44 µM. The TGI in the assay with 786-0 renal was 3.1 µM; with A549 NSCLC, 10.5 µM; in the assay with ACHN renal it was 3.1 µM; in the assay with COLO 205 colon, 3.11 µM; in the assay with HS 578T breast it was 30 µM; in the assay with IGROV1 ovarian, 10.8 µM. In addition, the TGI in the assay on K-562 leukemia worked out at 13.3 µM; in the assay on NCI-H226 lung it was 10.8 µM; in the assay on RXF 393 renal it was 2.91 µM; with SK-MEL-5 melanoma, 4.07 µM.
Turning to `COc1ccc(OC)c(/C=C/C(=O)c2ccc3cc(OC)ccc3c2)c1`, the GI50 with 786-0 renal is greater than 11.7 µM; in the assay on A549 NSCLC it was 9.52 µM; in the assay with COLO 205 colon, 6.81 µM; in the assay with HS 578T breast, greater than 33.3 µM; in the assay with K-562 leukemia it was 6.46 µM; with NCI-H226 lung, greater than 50 µM. The GI50 in the assay on SK-MEL-5 melanoma is 6.4 µM. For the same compound, the TGI is greater than 50 µM with 786-0 renal; greater than 32.4 µM with A549 NSCLC; greater than 32.9 µM in the assay on ACHN renal; greater than 14.8 µM with COLO 205 colon; greater than 50 µM in the assay with HS 578T breast; greater than 14.5 µM in the assay with IGROV1 ovarian. Further, the results for the TGI with K-562 leukemia, in the assay with NCI-H226 lung and in the assay on SK-MEL-5 melanoma were greater than 50 µM, greater than 50 µM and greater than 24.3 µM, respectively.
Consider `O=C(O)CSc1nnc2c3ccccc3c3ccccc3c2n1`, for which the TGI with 786-0 renal, in the assay on A549 NSCLC, with ACHN renal, with COLO 205 colon, in the assay with HS 578T breast and with IGROV1 ovarian was greater than 100 µM each time. The TGI in the assay on K-562 leukemia, in the assay with NCI-H226 lung, in the assay on RXF 393 renal and in the assay on SK-MEL-5 melanoma was greater than 100 µM each time.
In the case of `CCCNC(=O)Nc1ccc2c(c1)Cc1cc(N(CCCl)CCCl)ccc1-2`, the TGI in the assay on 786-0 renal was greater than 100 µM; in the assay on A549 NSCLC it was greater than 100 µM; in the assay with ACHN renal it was 33.8 µM; with COLO 205 colon, 26.7 µM; in the assay with HS 578T breast, 61.4 µM; in the assay on IGROV1 ovarian, 50.6 µM. For the same compound, the TGI in the assay on K-562 leukemia is greater than 100 µM; in the assay with RXF 393 renal, 34.2 µM; with SK-MEL-5 melanoma, 33 µM.
Take `C=C1C(OCCO)OC2O[C@]3(C)CCC4[C@H](C)CCC1C24OO3` (some centres undefined): the GI50 with 786-0 renal was 24.5 µM; with A549 NSCLC it was 28.4 µM; in the assay on ACHN renal it was 31.4 µM; in the assay on COLO 205 colon it was 2.87 µM; with HS 578T breast it was 19.9 µM; in the assay on IGROV1 ovarian, 12.3 µM. Also, the values for the GI50 in the assay on K-562 leukemia and in the assay on SK-MEL-5 melanoma were 4.16 µM and 23.8 µM, respectively. Also, the TGI was greater than 100 µM in the assay on 786-0 renal; greater than 100 µM in the assay on A549 NSCLC; greater than 100 µM in the assay with ACHN renal; 14.3 µM with COLO 205 colon; greater than 100 µM in the assay on HS 578T breast; 34.9 µM with IGROV1 ovarian. Further, the TGI in the assay on K-562 leukemia and in the assay with SK-MEL-5 melanoma was greater than 100 µM in each case.
Take `Nc1nc(N)c(-c2ccc(Cl)cc2)c(/C=C/c2ccc([N+](=O)[O-])cc2)n1`: the GI50 with 786-0 renal was 5.81 µM; in the assay on A549 NSCLC it was 3.1 µM; in the assay on ACHN renal, 3.85 µM; with COLO 205 colon, 6.01 µM; in the assay on HS 578T breast, 9.97 µM; in the assay on IGROV1 ovarian it was 5.35 µM. Also, the figures for the GI50 in the assay on K-562 leukemia, with NCI-H226 lung and with SK-MEL-5 melanoma were 3.16 µM, 20.3 µM and 3.83 µM, respectively. Besides, the TGI in the assay on 786-0 renal is 44.9 µM; with A549 NSCLC, 47.8 µM; with ACHN renal it was greater than 100 µM; with COLO 205 colon, greater than 100 µM; in the assay with HS 578T breast, greater than 100 µM; in the assay with IGROV1 ovarian, 52.9 µM. Further, the TGI with K-562 leukemia, in the assay with NCI-H226 lung and in the assay on SK-MEL-5 melanoma was greater than 100 µM in each case.
For the compound `CN(C)c1ccc(/C=c2\sc3nnc(Cc4ccccc4)n3c2=O)cc1`, the GI50 in the assay on 786-0 renal is greater than 100 µM; in the assay on A549 NSCLC it was greater than 10 µM; in the assay on ACHN renal it was greater than 10 µM; in the assay on IGROV1 ovarian, greater than 100 µM; in the assay on K-562 leukemia, greater than 100 µM; in the assay on NCI-H226 lung it was greater than 100 µM. The figures for the GI50 with RXF 393 renal and with SK-MEL-5 melanoma were greater than 10 µM and greater than 100 µM, respectively. Further, the TGI in the assay on 786-0 renal was greater than 100 µM; in the assay on A549 NSCLC, greater than 100 µM; in the assay on ACHN renal, greater than 100 µM; in the assay with COLO 205 colon, greater than 10 µM; in the assay with IGROV1 ovarian it was greater than 100 µM; in the assay on K-562 leukemia, greater than 100 µM. The TGI was greater than 100 µM with NCI-H226 lung; > 10 µM and 97.3 µM in the assay on RXF 393 renal; greater than 100 µM in the assay on SK-MEL-5 melanoma.
Consider `COc1ccc([Se]c2ccc(OC)cc2)cc1`, for which the TGI in the assay with 786-0 renal, in the assay on A549 NSCLC, in the assay on ACHN renal, in the assay on COLO 205 colon, with IGROV1 ovarian and in the assay on K-562 leukemia was greater than 100 µM in each case. Also, the TGI in the assay with NCI-H226 lung is 93.5 µM; in the assay with RXF 393 renal, greater than 100 µM; in the assay with SK-MEL-5 melanoma it was greater than 100 µM.
